Values quoted from earlier work in patent EP1964566A1, “PREPARATION WITH IMPROVED BIOABSORBABILITY OF SAPROPTERIN HYDROCHLORIDE” (Asubio Pharma Co., Ltd., priority 2005, dated 2007).

Conditions: in vivo, po

bioavailability: 1-2%
Substance: sapropterin hydrochloride
